In the NIST ThermoML archive (doi:10.1016/j.tca.2016.03.002):

Assay: refractive index (Na D-line) (dimensionless); xn = mol fraction of the nth substance listed
Conditions: 100 kPa, Liquid, Standard Abbe refractometry

NC1CCCCC1 [cyclohexylamine] + CO
refractive index
Conditions | 293.15 K | 298.15 K | 303.15 K
x2 = 0 | 1.45934 | 1.45663 | 1.45325
x2 = 0.0702 | 1.45717 | 1.45462 | 1.45212
x2 = 0.1177 | 1.45561 | 1.45309 | 1.45064
x2 = 0.2006 | 1.45245 | 1.45014 | 1.44761
x2 = 0.3049 | 1.44774 | 1.44542 | 1.4431
x2 = 0.4041 | 1.44199 | 1.43954 | 1.43715
x2 = 0.4986 | 1.43478 | 1.43243 | 1.42999
x2 = 0.5392 | 1.43072 | 1.42852 | 1.42613
x2 = 0.597 | 1.42424 | 1.42256 | 1.42012
x2 = 0.6609 | 1.41597 | 1.41393 | 1.41198
x2 = 0.7024 | 1.40945 | 1.40787 | 1.40569
x2 = 0.746 | – | – | 1.39807
x2 = 0.7999 | 1.39047 | 1.38877 | 1.38677
x2 = 0.8535 | – | 1.3759 | –
x2 = 0.8572 | 1.37655 | 1.37494 | 1.37247
x2 = 0.8985 | 1.36493 | 1.36313 | –
x2 = 0.9032 | 1.36365 | – | 1.35944
x2 = 0.949 | 1.34836 | 1.34625 | 1.3444
